Several values for one entry are separate records, joined by “and”; a condition that tells them apart may be missing. Identical values can stand only once. Like-named read-outs stand apart in the source and are kept apart here.
Columns and labels:
[1] = molecular target: wild-type human cardiac sodium channel, hNav1.5 (late INa) (Homo sapiens, UniProt Q14524); assay: Late INa screening assay (QPatch whole cell patch clamp); type: cell-based
In short: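 Compounds tested at 1 μM final in extracellular solution against tefluthrin (10 μM)-enhanced late current. Automated patch clamp (23-25° C) on HEK293 expressing alpha subunit alone: −120 mV holding, 250 ms depolarization to −20 mV every 10 s. Read-out is percent inhibition of mean current over 225–250 ms.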

[2] = Microsomal stability assay, rat; type: in vitro ADME; conditions: metabolic stability, rat liver microsomes 0.5 mg/mL, substrate 3 uM
In short: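 Liver microsomes at 0.5 mg/mL protein in 100 mM KPO4 buffer, incubated with 3 uM compound and NADPH-regenerating system, run in duplicate. Samples taken at 2, 12, 25, 45 and 65 min and quenched in MeOH/ACN/water before analysis.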

[3] = molecular target: hERG potassium channel (Homo sapiens, UniProt Q12809); assay: hERG screening assay (PatchXpress, CHO cells); type: cell-based; conditions: for HERG*: % inhibition at 1 μM
hERG potassium channel, sequence (Q12809 whole entry): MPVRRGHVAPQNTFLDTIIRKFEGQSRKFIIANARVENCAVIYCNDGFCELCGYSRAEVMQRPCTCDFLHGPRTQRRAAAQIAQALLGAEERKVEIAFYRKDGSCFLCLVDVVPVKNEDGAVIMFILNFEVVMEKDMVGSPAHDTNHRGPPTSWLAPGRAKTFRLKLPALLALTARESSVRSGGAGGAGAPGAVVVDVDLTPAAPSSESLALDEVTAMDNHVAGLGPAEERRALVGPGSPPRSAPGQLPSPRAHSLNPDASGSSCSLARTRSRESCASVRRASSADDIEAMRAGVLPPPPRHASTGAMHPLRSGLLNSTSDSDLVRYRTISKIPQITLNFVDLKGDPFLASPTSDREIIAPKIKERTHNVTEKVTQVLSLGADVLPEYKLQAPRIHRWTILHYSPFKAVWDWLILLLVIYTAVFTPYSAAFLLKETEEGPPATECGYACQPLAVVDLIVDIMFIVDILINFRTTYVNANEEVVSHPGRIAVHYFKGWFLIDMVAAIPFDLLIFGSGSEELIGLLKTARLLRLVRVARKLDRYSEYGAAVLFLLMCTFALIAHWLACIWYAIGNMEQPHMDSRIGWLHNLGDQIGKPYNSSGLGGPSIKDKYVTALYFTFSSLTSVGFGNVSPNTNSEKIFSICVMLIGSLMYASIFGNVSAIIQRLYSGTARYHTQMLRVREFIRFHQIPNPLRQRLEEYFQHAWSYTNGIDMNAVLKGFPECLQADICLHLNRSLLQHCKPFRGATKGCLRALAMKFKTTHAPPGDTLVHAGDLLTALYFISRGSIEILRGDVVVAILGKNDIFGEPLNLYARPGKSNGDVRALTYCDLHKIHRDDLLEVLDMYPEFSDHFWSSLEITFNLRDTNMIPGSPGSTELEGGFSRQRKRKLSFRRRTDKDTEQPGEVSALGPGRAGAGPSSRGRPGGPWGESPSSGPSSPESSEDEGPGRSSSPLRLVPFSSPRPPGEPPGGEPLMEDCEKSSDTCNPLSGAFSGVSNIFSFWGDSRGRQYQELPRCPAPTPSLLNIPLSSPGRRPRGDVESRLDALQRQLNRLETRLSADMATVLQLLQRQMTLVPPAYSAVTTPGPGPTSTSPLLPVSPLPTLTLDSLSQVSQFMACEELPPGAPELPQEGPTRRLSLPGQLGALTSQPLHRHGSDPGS
Protocol: Compounds were also tested for their effect to block the hERG K^+ channel.
Compounds were screened to test their activity in blocking the hERG potassium channel at AVIVA Biosciences (San Deigo, Calif., USA). The hERG channel is heterologously expressed in a CHO (Chinese Hamster Ovary) cell line. Cells were maintained with standard tissue culture procedures and stable channel expression was maintained with 500 μg/mL G418 in the culture medium. Cells were harvested for testing on the PatchXpress 7000A automated patch clamp with Accumax (Innovative Cell Technologies, San Diego, Calif.) to isolate single cells.
The following solutions were used for electrophysiological recordings. The external solution contained: 2 mM CaCl2; 2 mM MgCl2; 4 mM KCl; 150 mM NaCl; 10 mM Glucose; 10 mM HEPES (pH 7.4 with 1M NaOH; osmolarity, ˜310 mOsm). The internal solution contained: 140 mM KCl, 10 mM MgCl2, 6 mM EGTA, 5 mM HEPES, 5 mM ATP (pH adjusted to 7.25 with KOH; osmolarity, ˜295 mOsm).
hERG channels were activated when the voltage was first stepped to −50 mV for 300 ms from the −80 mV holding potential and then stepped to +20 mV for 5 seconds. At +20 mV the channels open and then largely inactivate, so the currents are relatively small. Upon returning to −50 mV from +20 mV, hERG currents transiently become much larger as inactivation is rapidly removed and then the channel closes. The first step to −50 mV for 300 ms was used as a baseline for measuring the peak amplitude during the step to −50 mV after channel activation. The peak tail current at −50 mV was measured both under control conditions and after addition of compound, each cell serving as its own control.
All compounds were prepared as 10 mM DMSO stocks in glass vials. Stock solutions were mixed by vigorous vortexing and sonication for about 2 minutes at room temperature. For testing, compounds were diluted in glass vials using an intermediate dilution step in pure DMSO and then further diluted to working concentrations in external solution. Dilutions were prepared no longer than 20 minutes before use.
For the electrophysiological recordings, after achieving the whole-cell configuration, cells were monitored for 90 seconds to assess stability and washed with external solution for 66 seconds. The voltage protocol described above was then applied to the cells every 12 seconds and throughout the whole procedure. Only cells with stable recording parameters and meeting specified health criteria were allowed to enter the compound addition procedure.
External solution containing 0.1% DMSO (vehicle) was applied to the cells first to establish the control peak current amplitude. After allowing the current to stabilize for 3 to 5 minutes, 1 μM and then 10 μM test compounds were applied. Each compound concentration was added 4 times and cells were kept in test solution until the effect of the compound reached steady state or for a maximum of 12 minutes. After addition of test compound, a positive control (1 μM Cisapride) was added and must block >95% of the current for the experiment to be considered valid. Washout in the external solution compartment was performed until the recovery of the current reached steady state.

[4] = % inhibition at 1 μM, read-out: NAv1.5*-LATE-
[5] = percent block of late INa, compound at 1 μM, 10 μM Tefluthrin, HEK293 hNav1.5, read-out: Late INa 1 μM

wild-type human cardiac sodium channel, hNav1.5 (late INa), sequence (Q14524 whole entry): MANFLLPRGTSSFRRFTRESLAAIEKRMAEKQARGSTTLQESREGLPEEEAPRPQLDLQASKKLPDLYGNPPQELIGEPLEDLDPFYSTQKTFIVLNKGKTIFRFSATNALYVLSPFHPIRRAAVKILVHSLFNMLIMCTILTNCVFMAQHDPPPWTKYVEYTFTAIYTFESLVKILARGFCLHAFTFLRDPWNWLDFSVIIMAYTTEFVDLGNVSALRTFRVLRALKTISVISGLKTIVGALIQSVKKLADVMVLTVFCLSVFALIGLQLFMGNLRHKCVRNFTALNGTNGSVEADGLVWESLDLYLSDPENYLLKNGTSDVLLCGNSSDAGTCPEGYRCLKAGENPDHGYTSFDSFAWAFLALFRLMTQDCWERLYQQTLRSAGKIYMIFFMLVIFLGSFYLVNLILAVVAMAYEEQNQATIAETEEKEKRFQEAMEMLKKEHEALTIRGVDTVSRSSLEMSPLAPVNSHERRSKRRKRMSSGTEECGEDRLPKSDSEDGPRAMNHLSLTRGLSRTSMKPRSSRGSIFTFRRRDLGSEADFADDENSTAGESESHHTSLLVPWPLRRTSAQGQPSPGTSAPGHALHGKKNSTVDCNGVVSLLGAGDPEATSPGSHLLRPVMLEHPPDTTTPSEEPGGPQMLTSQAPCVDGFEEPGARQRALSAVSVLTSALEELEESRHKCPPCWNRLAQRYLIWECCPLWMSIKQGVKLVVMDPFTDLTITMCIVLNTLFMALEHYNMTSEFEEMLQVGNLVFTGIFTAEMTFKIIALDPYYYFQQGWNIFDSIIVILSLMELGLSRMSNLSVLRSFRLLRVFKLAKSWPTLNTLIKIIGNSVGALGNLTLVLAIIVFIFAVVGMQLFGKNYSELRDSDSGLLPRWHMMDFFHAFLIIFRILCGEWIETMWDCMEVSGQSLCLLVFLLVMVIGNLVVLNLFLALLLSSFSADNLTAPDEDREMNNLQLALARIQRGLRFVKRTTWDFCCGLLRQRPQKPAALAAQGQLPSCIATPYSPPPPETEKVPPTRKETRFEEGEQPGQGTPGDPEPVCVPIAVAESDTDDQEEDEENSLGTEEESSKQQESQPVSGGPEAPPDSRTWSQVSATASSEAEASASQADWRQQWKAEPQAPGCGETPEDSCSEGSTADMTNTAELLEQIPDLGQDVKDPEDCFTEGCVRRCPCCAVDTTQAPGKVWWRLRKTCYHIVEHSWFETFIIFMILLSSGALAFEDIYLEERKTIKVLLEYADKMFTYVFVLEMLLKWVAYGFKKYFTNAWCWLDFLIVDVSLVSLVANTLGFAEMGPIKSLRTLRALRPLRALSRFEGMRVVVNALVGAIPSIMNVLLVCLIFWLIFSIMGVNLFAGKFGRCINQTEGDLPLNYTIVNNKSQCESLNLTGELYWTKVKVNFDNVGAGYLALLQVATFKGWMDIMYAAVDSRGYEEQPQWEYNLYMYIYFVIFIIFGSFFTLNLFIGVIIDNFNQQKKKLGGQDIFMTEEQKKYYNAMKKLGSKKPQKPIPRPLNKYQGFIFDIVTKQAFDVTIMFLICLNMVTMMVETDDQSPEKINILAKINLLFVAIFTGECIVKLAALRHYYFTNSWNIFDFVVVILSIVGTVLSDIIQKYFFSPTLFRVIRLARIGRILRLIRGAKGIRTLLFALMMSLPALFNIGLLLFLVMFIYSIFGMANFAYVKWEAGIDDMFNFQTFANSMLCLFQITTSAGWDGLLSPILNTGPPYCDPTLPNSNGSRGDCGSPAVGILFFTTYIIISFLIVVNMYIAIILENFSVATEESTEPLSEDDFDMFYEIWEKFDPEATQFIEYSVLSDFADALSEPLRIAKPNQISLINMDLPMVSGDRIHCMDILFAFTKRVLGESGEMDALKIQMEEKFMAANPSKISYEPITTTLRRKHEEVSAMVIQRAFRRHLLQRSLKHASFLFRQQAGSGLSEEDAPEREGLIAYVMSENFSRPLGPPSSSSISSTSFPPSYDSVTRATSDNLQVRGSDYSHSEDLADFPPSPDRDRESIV

Row | SMILES | inhibition at 1 µM [1, 4] | inhibition at 1 µM [1, 5] | MS Rat THalf [2] | HERG* [3] | inhibition at 10 µM ([3]; human, CHO cells that heterologously express the hERG channel, pH 7.4, at 10 μM)
1 | O=C1c2cc(-c3ccc(C(F)(F)F)cc3)ccc2OCN1Cc1ccccn1 [VIII-1, 3-(pyridin-2-ylmethyl)-6-(4-(trifluoromethyl)phenyl)-2H-benzo[e][1,3]oxazin-4(3H)-one] | 52% | 52% | 211 min | – | –
2 | O=c1c2cc(-c3ccc(OC(F)(F)F)cc3)ccc2nnn1C1CCNCC1 [II-38, 3-(piperidin-4-yl)-6-(4-(trifluoromethoxy)phenyl)benzo[d][1,2,3]triazin-4(3H)-one] | 33% | 33% | 298 min | 58% | –
3 | CC1Oc2ccc(-c3ccc(OC(F)(F)F)cc3)cc2C(=O)N1Cc1ncccn1 (centres unmarked) [VIII-7, 2-methyl-3-(pyrimidin-2-ylmethyl)-6-(4-(trifluoromethoxy)phenyl)-2H-benzo[e][1,3]oxazin-4(3H)-one] | 22% | 22% | 152 min | <10% | –
4 | O=c1c2cc(-c3ccc(OC(F)(F)F)cc3)ccc2nnn1CC1(CN2CCOCC2)CC1 [II-40, 3-((1-(morpholinomethyl)cyclopropyl)methyl)-6-(4-(trifluoromethoxy)phenyl)benzo[d][1,2,3]triazin-4(3H)-one] | 48% | 48% | 2 min | 81% | –
5 | O=C(c1cccnn1)N1CCc2ccc(-c3ccc(C(F)(F)F)cc3)cc2C1 [IX-17, Pyridazin-3-yl(7-(4-(trifluoromethyl)phenyl)-3,4-dihydroisoquinolin-2 (1H)-yl) methanone] | 39% | 39% | 302 min | 76% | –
6 | Cc1noc(Cn2nnc3ccc(-c4ccc(OC(F)(F)F)cc4)cc3c2=O)n1 [II-3, 3-((3-methyl-1,2,4-oxadiazol-5-yl)methyl)-6-(4-(trifluoromethoxy)phenyl)benzo[d][1,2,3]triazin-4(3H)-one] | 53% | 53% | 249 min | 15.5% and 16% | 24.5%
7 | O=c1c2cc(-c3ccc(OC(F)(F)F)cc3)ccc2nnn1Cc1noc(C2CC2)n1 [II-14, 3-((5-cyclopropyl-1,2,4-oxadiazol-3-yl)methyl)-6-(4-(trifluoromethoxy)phenyl)benzo[d][1,2,3]triazin-4(3H)-one] | 68% | 68% | 375 min | <10% | –
8 | O=c1c2cc(-c3ccc(OC(F)(F)F)cc3)ccc2nnn1Cc1noc(-c2ccccn2)n1 [II-54, 3-((5-(pyridin-2-yl)-1,2,4-oxadiazol-3-yl)methyl)-6-(4-(trifluoromethoxy)phenyl)benzo[d][1,2,3]triazin-4(3H)-one] | 52% | 52% | 176 min | 23% | –
9 | O=C1c2cc(-c3ccc(OC(F)(F)F)cc3)ccc2OCN1Cc1ccccn1 [VIII-3, 3-(pyridin-2-ylmethyl)-6-(4-(trifluoromethoxy)phenyl)-2H-benzo[e][1,3]oxazin-4(3H)-one] | 58% | 58% | 227 min | <10% | –
10 | Cn1cnc(C(=O)N2CCc3ccc(-c4ccc(C(F)(F)F)cc4)cc3C2)c1 [IX-39, (1-methyl-1H-imidazol-4-yl)(7-(4-(trifluoromethyl)phenyl)-3,4-dihydroisoquinolin-2(1H)-yl)methanone] | 30% | 30% | 281 min | 35% | –
11 | O=C(c1ncccn1)N1CCc2ccc(-c3ccc(C(F)(F)F)cc3)cc2C1 [IX-7, pyrimidin-2-yl(7-(4-(trifluoromethyl)phenyl)-3,4-dihydroisoquinolin-2(1H)-yl)methanone] | 46% | 46% | > 395 min | <10% | –
12 | O=c1c2cc(-c3ccc(OC(F)(F)F)cc3)ccc2nnn1Cc1nnc(C2CC2)o1 [II-67, 3-((5-cyclopropyl-1,3,4-oxadiazol-2-yl)methyl)-6-(4-(trifluoromethoxy)phenyl)benzo[d][1,2,3]triazin-4(3H)-one] | 47% | 47% | > 395 min | 41% | –
13 | Cc1nc(Cn2cnc3ccc(-c4ccc(OC(F)(F)F)cc4)cc3c2=O)no1 [IV-9, 3-((5-methyl-1,2,4-oxadiazol-3-yl)methyl)-6-(4-(trifluoromethoxy)phenyl)quinazolin-4(3H)-one] | 42% | 42% | 243 min | <10% | –
14 | O=c1c2cc(-c3ccc(OC(F)(F)F)cc3)ccc2cnn1CCOc1ncccn1 [III-28, 2-(2-(pyrimidin-2-yloxy)ethyl)-7-(4-(trifluoromethoxy)phenyl)phthalazin-1 (2H)-one] | 75% | 75% | 103 min | 51% | –
15 | O=C1c2cc(-c3ccc(OC(F)(F)F)cc3)ccc2CCN1Cc1ncccn1 [IX-1, 2-(pyrimidin-2-ylmethyl)-7-(4-(trifluoromethoxy)phenyl)-3,4-dihydroisoquinolin-1(2H)-one] | 32% | 32% | 150 min | 17% | –
16 | O=C1c2cc(-c3ccc(C(F)(F)F)cc3)ccc2CCN1Cc1ncccn1 [IX-3, 2-(pyrimidin-2-ylmethyl)-7-(4-(trifluoromethyl)phenyl)-3,4-dihydroisoquinolin-1(2H)-one] | 29% | 29% | 355 min | 14% | –
17 | O=c1c2cc(-c3ccc(OC(F)(F)F)cc3)ccc2nnn1CCc1ncccn1 [II-18, 3-(2-(pyrimidin-2-yl)ethyl)-6-(4-(trifluoromethoxy)phenyl)benzo[d][1,2,3]triazin-4(3H)-one] | 66% | 66% | 49 min | 30% | –
18 | COc1cc(OC)nc(Cn2ncc3ccc(-c4ccc(OC(F)(F)F)cc4)cc3c2=O)n1 [III-19, 2-((4,6-dimethoxypyrimidin-2-yl)methyl)-7-(4-(trifluoromethoxy)phenyl)phthalazin-1 (2H)-one] | 56% | 56% | 72 min | 23% | –
19 | Cc1noc(Cn2cnc3ccc(-c4ccc(OC(F)(F)F)cc4)cc3c2=O)n1 [IV-6, 3-((3-methyl-1,2,4-oxadiazol-5-yl)methyl)-6-(4-(trifluoromethoxy)phenyl)quinazolin-4(3H)-one] | 49% | 49% | 190 min | <10% | –
20 | O=c1c2cc(-c3ccc(OC(F)(F)F)cc3)ccc2nnn1CCc1ccncn1 [II-17, 3-(2-(pyrimidin-4-yl)ethyl)-6-(4-(trifluoromethoxy)phenyl)benzo[d][1,2,3]triazin-4(3H)-one] | 61% | 61% | 24 min | 42% | –
21 | O=C1c2cc(-c3ccc(OC(F)(F)F)cc3)ccc2OCN1Cc1ncccn1 [VIII-20, 3-(pyrimidin-2-ylmethyl)-6-(4-(trifluoromethoxy)phenyl)-2H-benzo[e][1,3]oxazin-4(3H)-one] | 62% | 62% | – | <10% | –

From patent US20150329558A1, “FUSED HETEROCYCLIC COMPOUNDS AS ION CHANNEL MODULATORS” (Gilead Sciences, Inc., priority 2011, published 2015)
